PubChem BioAssay (NCI)
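Growth conditions: 96-well plates. Treatment: test compound, 48 hours, 5 concentrations. Analysis: linear interpolation between bracketing concentrations; unreached endpoints set to highest concentration. GI50: concentration for 50% inhibition of growth. TGI denotes the concentration required for complete inhibition of growth.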

How the values were obtained:
Experiment in all cases: NCI tumour cell line growth inhibition, 48 h
[1] = tested on: HOP-62 NSCLC
[2] = tested on: IGROV1 ovarian
[3] = tested on: KM20L2 colon
[4] = tested on: NCI-H23 lung
[5] = tested on: OVCAR-3 ovarian
[6] = tested on: OVCAR-4 ovarian
[7] = tested on: OVCAR-5 ovarian
[8] = tested on: SF-268 CNS
[9] = tested on: SK-MEL-28 melanoma
[10] = tested on: SN12C renal

SMILES	TGI [1] [µM]	TGI [2] [µM]	TGI [3] [µM]	TGI [4] [µM]	TGI [5] [µM]	TGI [6] [µM]	TGI [7] [µM]	TGI [8] [µM]	TGI [9] [µM]	TGI [10] [µM]	GI50 [1] [µM]	GI50 [2] [µM]	GI50 [3] [µM]	GI50 [4] [µM]	GI50 [5] [µM]	GI50 [6] [µM]	GI50 [7] [µM]	GI50 [8] [µM]	GI50 [9] [µM]	GI50 [10] [µM]
CC1OC(O)CC(OC(=O)c2ccccc2)C1OC(=O)c1ccccc1 (stereo not given)	> 100	> 100	> 100	30.8	33.4	28.8	> 100	30	29.6	32.3										
COc1ccc(OC)c2cc(C3(C)SCCCS3)ccc12	> 100	> 100	> 100	> 100	> 100	> 100	> 100	> 100	> 100	> 100										
Nc1nc(N)c(-c2ccc(Cl)cc2)c(CCC(=O)Nc2cccc(C(F)(F)F)c2)n1	> 100	> 100	> 100	> 100	> 100	> 100	> 100	> 100	> 100	> 100										
O=C(CC1(O)C(=O)Nc2c(Cl)cc(Cl)cc21)c1ccc2ccccc2c1 (stereo not given)	20.8	23.1	11.4	22.3	18.6	26.4	30.3	31.8	24.3	22.9										
O=S1c2ccc(Cl)cc2CC(SSC2Cc3cc(Cl)ccc3S(=O)c3ccccc32)c2ccccc21 (stereo not given)	> 100	> 100	> 100	> 100	> 100	> 100	> 100	> 100	> 100	> 100										
O=C1/C(=C/c2ccccc2)CCCC/C1=C\c1ccccc1	> 100	> 100	> 100	> 100	> 100	> 100	97.1	> 100	> 100	> 100										
Nc1ccc(C(=O)NN2C(=O)C(Cl)C2c2ccccc2O)cc1 (stereo not given)	> 100	> 100	> 100	> 100	> 100	> 100	> 100	> 100	> 100	> 100										
CCCCCCCCCCCC(=O)OCC1OC(n2cc(F)c(=O)[nH]c2=O)C(N)C(O)C1O (stereo not given)	> 100	> 100	> 100	> 100	> 100	> 100	> 100	> 100	> 100	> 100										
CN(CCO)c1nc2c(c(=O)[nH]1)CNCC2	> 100	> 100	> 100	> 100	> 100	> 100	> 100	> 100	> 100	> 100										
Cc1ccc2[nH]c(=O)c(C(C#N)c3ccccc3)nc2c1 (stereo not given)	> 100	> 100	92.3	> 100	> 100	> 100	> 100	> 100	> 100	> 100										
COc1ccccc1NC(=O)C1=C(C)NC(C)=C(C(=O)Nc2ccccc2OC)C1c1ccccc1OC	> 100	> 100	> 100	> 100	> 100	> 100	> 100	> 100	> 100	> 100										
Cc1ccc(C2=NO[C@@H]3C(=O)N(c4ccc(Cc5ccc(N6C(=O)[C@H]7C(c8ccc(C)cc8)=NO[C@H]7C6=O)cc5)cc4)C(=O)[C@H]23)cc1	> 100	> 100	> 100	> 100	> 100	> 100	> 100	> 100	> 100	> 100										
CCOC(=O)C1C(c2ccc([N+](=O)[O-])cc2)NC(c2ccc([N+](=O)[O-])cc2)C(C(=O)OC)S1(=O)=O (stereo not given)	> 100	> 100	> 100	> 100	> 100	> 100	> 100	> 100	> 100	> 100										
Cc1cc(C)n(-c2c(O)ccc(O)c2-n2nc(C)cc2C)n1	> 100	> 100	> 100	> 100	> 100	> 100	> 100	> 100	> 100	> 100										
CCC[CH2][Sn]([CH2]CCC)([S]C1=NCCS1)[S]C1=NCCS1	3.55	2.74	2.88	0.67	1.87	2.24	3.78	0.908	0.353	1.82	2.1	1.3	1.35	0.17	0.563	0.964	2.29	0.254	0.146	0.502
